Measured values reported in the supplement of paper PMC11061612.

Assays:
Experiment in all cases: combination Emax (second highest fraction inhibited in the dose matrix, 72 h); higher = more inhibition; extreme values may be limits of the assay
[1] = tested on: 8305C (Thyroid Gland Carcinoma)
Method in brief: (§1)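 Cell lines grown in DMEM/F12 or RPMI with 10% FBS were plated in 1536-well plates and held 24 hours at 37°C, 5% CO2 before 72 hours of exposure to two-drug dose matrices, with DMSO typically at 0.2%. CellTiter-Glo 2.0 luminescence gave viability, which was converted to inhibition. Vehicle wells were set to 0 and blank wells to 1. Combination Emax is the second-highest inhibition in the matrix, and Bliss excess is the observed combination effect minus the expected EA + EB − EA·EB, where EA and EB are the single-agent effects.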

[2] = tested on: CAL-54 (Kidney Carcinoma)
Method in brief: as §1

[3] = tested on: CAPAN-1 (Pancreatic Carcinoma)
Method in brief: as §1

[4] = tested on: HARA (Squamous Cell Lung Carcinoma)
Method in brief: as §1

[5] = tested on: HDLM-2 (Hodgkin's Lymphoma)
Method in brief: as §1

HMV-II (Melanoma) = tested on: HMV-II (Melanoma)
Method in brief: as §1

[6] = tested on: HO-1-u-1 (Oral Cavity Carcinoma)
Method in brief: as §1

[7] = tested on: Hs-633T (Other Solid Carcinomas)
Method in brief: as §1

[8] = tested on: LoVo (Colorectal Carcinoma)
Method in brief: as §1

Mewo (Melanoma) = tested on: Mewo (Melanoma)
Method in brief: as §1

NB14 (Neuroblastoma) = tested on: NB14 (Neuroblastoma)
Method in brief: as §1

NCI-H2461 (Mesothelioma) = tested on: NCI-H2461 (Mesothelioma)
Method in brief: as §1

NCI-H2795 (Mesothelioma) = tested on: NCI-H2795 (Mesothelioma)
Method in brief: as §1

NCI-H28 (Mesothelioma) = tested on: NCI-H28 (Mesothelioma)
Method in brief: as §1

[9] = tested on: NCI-H69 (Small Cell Lung Carcinoma)
Method in brief: as §1

[10] = tested on: RKO (Colorectal Carcinoma)
Method in brief: as §1

[11] = tested on: SK-OV-3 (Ovarian Carcinoma)
Method in brief: as §1

[12] = tested on: SU-DHL-6 (B-Cell Non-Hodgkin's Lymphoma)
Method in brief: as §1

[13] = tested on: SUP-T1 (T-Lymphoblastic Leukemia)
Method in brief: as §1

[14] = tested on: SW1116 (Colorectal Carcinoma)
Method in brief: as §1

Row | Structure (SMILES) | combination Emax [1] | combination Emax [2] | combination Emax [3] | combination Emax [4] | combination Emax [5] | combination Emax (HMV-II (Melanoma)) | combination Emax [6] | combination Emax [7] | combination Emax [8] | combination Emax (Mewo (Melanoma)) | combination Emax (NB14 (Neuroblastoma)) | combination Emax (NCI-H2461 (Mesothelioma)) | combination Emax (NCI-H2795 (Mesothelioma)) | combination Emax (NCI-H28 (Mesothelioma)) | combination Emax [9] | combination Emax [10] | combination Emax [11] | combination Emax [12] | combination Emax [13] | combination Emax [14]
1 | C[C@@H]1COCCN1c1cc(C2([S@](C)(=N)=O)CC2)nc(-c2ccnc3[nH]ccc23)n1 [AZD6738] + C1CC(C1)(C(=O)[O-])C(=O)[O-].N.N.[Pt+2] [Carboplatin] (first compound max 10 µM, 7x7, partner max 10 µM) | 0.501 | 0.695 | 0.384 | 0.853 | 0.472 | 0.454 | 0.75 | 0.836 | 0.8 | 0.526 | 0.952 | 0.646 | 0.573 | 0.479 | 0.373 | 0.932 | 0.36 | 0.285 | 0.719 | 0.247
2 | N#Cc1cnc(Nc2cc(NC[C@H]3CNCCO3)c(C(F)(F)F)cn2)cn1 [SRA737] + Nc1ccn([C@@H]2O[C@H](CO)[C@@H](O)C2(F)F)c(=O)n1 [Gemcitabine] (first compound max 10 µM, 7x7, partner max 0.3 µM) | 0.679 | 0.792 | 0.657 | 0.902 | 0.854 | 0.64 | 0.826 | 0.916 | 0.789 | 0.788 | 1 | 0.683 | 0.804 | 0.761 | 0.778 | 0.923 | 0.543 | – | 0.806 | 0.649
3 | C[C@@H](Oc1cc(-c2cnn(C3CCNCC3)c2)cnc1N)c1c(Cl)ccc(F)c1Cl [Crizotinib] + Cn1cnc2c(F)c(Nc3ccc(Br)cc3Cl)c(C(=O)NOCCO)cc21 [Selumetinib] (first compound max 10 µM, 7x7, partner max 10 µM) | 0.801 | 0.565 | 0.571 | 0.59 | 0.193 | 0.934 | 0.639 | 0.896 | 0.557 | 0.541 | 0.966 | 0.56 | 0.918 | 0.438 | 0.621 | 0.982 | 0.249 | 1 | 0.823 | 0.518
4 | O=C(c1cc(Cc2n[nH]c(=O)c3ccccc23)ccc1F)N1CCN(C(=O)C2CC2)CC1 [Olaparib] + Cc1c2c(nn1C)CSCc1cc(n(C)n1)CSc1cc(c3ccccc3c1)OCCCc1c(C(=O)O)n(C)c3c-2c(Cl)ccc13 [AZD5991] (first compound max 10 µM, 7x7, partner max 1 µM) | 0.311 | 0.208 | 0.366 | 0.277 | 0.937 | 0.0925 | 0.239 | 0.184 | 0.162 | 0.161 | 0.595 | 0.127 | 0.748 | 0.118 | 0.239 | 0.137 | 0.174 | 1 | 0.477 | 0.0456
5 | Cc1c2c(nn1C)CSCc1cc(n(C)n1)CSc1cc(c3ccccc3c1)OCCCc1c(C(=O)O)n(C)c3c-2c(Cl)ccc13 [AZD5991] + CS(=O)(=O)CCNCc1ccc(-c2ccc3ncnc(Nc4ccc(OCc5cccc(F)c5)c(Cl)c4)c3c2)o1 [Lapatinib] (first compound max 1 µM, 7x7, partner max 10 µM) | 0.346 | 0.529 | 0.261 | 0.786 | 0.961 | 0.64 | 0.713 | 0.206 | 0.491 | 0.481 | 0.936 | 0.332 | 0.877 | 0.337 | 0.443 | 0.455 | 0.347 | 1 | 0.488 | 0.395
6 | N#Cc1cnc(Nc2cc(NC[C@H]3CNCCO3)c(C(F)(F)F)cn2)cn1 [SRA737] + CCc1c2c(nc3ccc(O)cc13)-c1cc3c(c(=O)n1C2)COC(=O)[C@]3(O)CC [SN-38] (first compound max 10 µM, 7x7, partner max 0.3 µM) | 0.615 | 0.793 | 0.758 | 0.898 | 0.724 | 0.546 | 0.924 | 0.831 | 0.775 | 0.679 | 0.981 | 0.638 | 0.769 | 0.516 | 0.82 | 0.925 | 0.542 | 1 | 0.796 | 0.616
7 | O=C(c1cc(Cc2n[nH]c(=O)c3ccccc23)ccc1F)N1CCN(C(=O)C2CC2)CC1 [Olaparib] + COc1nnc2ccc(N3CCC(c4ccc(OCCN5CCN(C)C(=O)[C@H]5C)cc4)CC3)nn12 [AZD5153] (first compound max 10 µM, 7x7, partner max 1 µM) | 0.495 | 0.737 | 0.418 | 0.582 | 0.356 | 0.474 | 0.454 | 0.612 | 0.436 | 0.417 | 0.574 | 0.42 | 0.651 | 0.422 | 0.488 | 0.672 | 0.516 | 0.917 | 0.792 | 0.332
8 | C[C@@H](Nc1cc(F)cc(F)c1)c1cc(C(=O)N(C)C)cc2c(=O)cc(N3CCOCC3)oc12 [AZD8186] + CC(=O)c1c(C)c2cnc(Nc3ccc(N4CCNCC4)cn3)nc2n(C2CCCC2)c1=O [Palbociclib] (first compound max 10 µM, 7x7, partner max 10 µM) | 0.564 | 0.755 | 0.247 | 0.589 | 0.333 | 0.469 | 0.378 | 0.586 | 0.736 | 0.449 | 0.536 | 0.447 | 0.53 | 0.434 | 0.558 | 0.514 | 0.394 | 0.999 | 0.651 | 0.175
9 | Cc1c2c(nn1C)CSCc1cc(n(C)n1)CSc1cc(c3ccccc3c1)OCCCc1c(C(=O)O)n(C)c3c-2c(Cl)ccc13 [AZD5991] + CC(=O)O[C@H]1C(=O)[C@@]2(C)[C@H]([C@H](OC(=O)c3ccccc3)[C@]3(O)C[C@H](OC(=O)[C@H](O)[C@@H](NC(=O)c4ccccc4)c4ccccc4)C(C)=C1C3(C)C)[C@]1(OC(C)=O)CO[C@@H]1C[C@@H]2O [Paclitaxel] (first compound max 1 µM, 7x7, partner max 3 µM) | 0.732 | 0.584 | 0.681 | 0.982 | 0.996 | 0.598 | 0.752 | 0.95 | 0.655 | 0.692 | 1 | 0.443 | 0.943 | 0.469 | 0.89 | 1 | 0.54 | 1 | 0.744 | 0.438
10 | CC1(C)CCC(CN2CCN(c3ccc(C(=O)NS(=O)(=O)c4ccc(NCC5CCOCC5)c([N+](=O)[O-])c4)c(Oc4cnc5[nH]ccc5c4)c3)CC2)=C(c2ccc(Cl)cc2)C1 [Venetoclax] + CS(=O)(=O)CCNCc1ccc(-c2ccc3ncnc(Nc4ccc(OCc5cccc(F)c5)c(Cl)c4)c3c2)o1 [Lapatinib] (first compound max 1 µM, 7x7, partner max 10 µM) | 0.356 | 0.52 | 0.261 | 0.584 | 0.629 | 0.519 | 0.673 | 0.213 | 0.486 | 0.176 | 0.948 | 0.268 | 0.341 | 0.362 | 0.724 | 0.325 | 0.345 | 0.975 | 0.484 | 0.288
11 | O=C(c1cc(Cc2n[nH]c(=O)c3ccccc23)ccc1F)N1CCN(C(=O)C2CC2)CC1 [Olaparib] + CN(CC[C@H](CSC1=CC=CC=C1)NC2=C(C=C(C=C2)S(=O)(=O)NC(=O)C3=CC=C(C=C3)N4CCC(CC4)[C@H](C5=CC=CC=C5C6=CC=C(C=C6)Cl)O)S(=O)(=O)C(F)(F)F)CCO [AZD4320] (first compound max 10 µM, 7x7, partner max 1 µM) | 0.385 | 0.236 | 0.663 | 0.162 | 0.878 | 0.0872 | 0.29 | 0.2 | 0.187 | 0.0936 | 0.882 | 0.17 | 0.451 | 0.168 | 0.954 | 0.11 | 0.219 | 0.919 | 0.602 | 0.118
12 | C=CCn1c(=O)c2cnc(Nc3ccc(N4CCN(C)CC4)cc3)nc2n1-c1cccc(C(C)(C)O)n1 [AZD1775] + Nc1ccn([C@@H]2O[C@H](CO)[C@@H](O)C2(F)F)c(=O)n1 [Gemcitabine] (first compound max 1 µM, partner max 0.3 µM) | 0.574 | 0.787 | 0.697 | 0.912 | 0.763 | 0.632 | 0.693 | 0.863 | 0.808 | 0.583 | 1 | 0.63 | 0.785 | 0.685 | 0.611 | 0.882 | 0.583 | 0.958 | 0.862 | 0.405
13 | N#Cc1cnc(Nc2cc(NC[C@H]3CNCCO3)c(C(F)(F)F)cn2)cn1 [SRA737] + O=c1[nH]cc(F)c(=O)[nH]1 [5-Fluorouracil] (first compound max 10 µM, 7x7, partner max 20 µM) | 0.392 | 0.565 | 0.349 | 0.89 | 0.645 | 0.303 | 0.667 | 0.413 | 0.652 | 0.38 | 0.97 | 0.526 | 0.759 | 0.28 | 0.152 | 0.656 | – | 0.748 | 0.662 | 0.193
